# From US20130084267A1, “METHOD FOR STEM CELL DIFFERENTIATION” (THE UNIVERSITY OF QUEENSLAND, priority 2010, published 2013)
# What was measured:
# [1] = system: ALK-4, -5 and -7; settings: Inman et al. 2002; Laping et al. 2002; cited from earlier work
# [2] = system: hESC; assay: Morphology of hESC cultured in the presence of SB431542; format: cell-based, human; settings: after 10 days incubation with SB431542
# From the text: (A) hESC remain as tightly packed colonies of small cells when cultured in normal growth conditions. […] (B) When these cells are transferred to MSC media, they again change morphology and become fibroblastic. (C) MSC also have a fibroblast-like morphology. (D) hiPSC line ES4CL1 also differentiates though an epithelial-like morphology into MSC-like cells with this SB431542 inhibitor culture method.
# Day −4 to −1: hESC/iPSC were dissociated from mouse embryonic fibroblast (MEF) feeder layer and seeded on either un-coated flasks (i.e., which allow for adherence (attachment) of the pluripotent cells to the surface) or matrigel-coated flasks in mTESR (defined pluripotent stem cell media, Stem Cell Technologies; i.e. serum free, feeder layer free).
# Day 1: when cell colonies were approximately 40% confluent, 10 uM SB431542 inhibitor (Sigma Aldrich) was added in DMEM:F12+20% knock out serum replacement (KOSR, Invitrogen) media.
# Day 2-9: 20% KOSR+SB431542 inhibitor media replaced daily.
# Day 7-10: when 90%+ cells have differentiated from hESC colonies to a monolayer with epithelial-like morphology, cells were passaged using TrypleSelect. Single cells were then seeded at 3×10^4-1.5×10^5 cells/cm^2 in fetal MSC medium (DMEM-HG+10% MSC qualified FBS), then passage when nearly confluent as for MSC.
# [3] = system: MEL1; assay: qRT-PCR gene expression analysis of SB431542-treated MEL1; format: cell-based, human; settings: MEL1, 10 μM SB431542, 10 days
# Method: The pluripotent hESC line, MEL1, was cultured in KOSR medium with 10 μM SB431542 treatment. After 10 days treatment, MEL1 cells were subcultured in MSC medium for differentiating MSC cells. […] SB431542 treated cells and MEL1-MSC P2 were analyzed for gene expression. (a-d) OCT4, SOX2, MYST2 and EPCAM genes associated with iPSC pluripotency. (e-h) NCAM, MSX2, LEFTY1 and BMP4 genes expressed by cell lineages from the mesoderm. (i-j) PAX6 gene is expressed by cell lineages from the ectoderm and CDX2 gene is expressed by cell lineages from the trophectoderm. (k) GATA gene expressed by cell lineages from the endoderm. (l-o) Genes expressed by MSC (positive in CD29, CD73 and negative in the CD117, CD133). Gene expression was normalized to GAPDH. All experiments represent duplicates. […] (A, B) The heat map of mRNA expression level was assayed by qRT-PCR array. ESC/iPSC cells were cultured in KOSR condition medium with 10 μM SB431542. After 10 days treatment, cells were subcultured into MSC medium to differentiate cells into MSC. RNA was extracted from MEL1 and MR90 cells at day 10. […] (C) Relative mRNA transcripts folds change of quantitative RT-PCR analysis in the indicated cell subsets. All the gene expression level was normalized to GAPDH mRNA level and compared to genes level in the mTESR culture condition. […]
# [4] = system: MR90; assay: qRT-PCR gene expression analysis of SB431542-treated MR90; format: cell-based, human; settings: MR90, 10 μM SB431542, 10 days
# Method: Pluripotent iPSC, MR90, were cultured in KOSR medium with 10 μM SB431542 treatment for 10 days. After 10 days treatment, MR90 cells were subcultured in the MSC medium for differentiating MSC cells. […] MSC are indicated as MR90-MSC P0 (passage 0). The SB431542 treated cells and MR90-MSC P0 were analyzed for gene expression. (a-d) OCT4, SOX2, MYST2 and EPCAM genes associated with iPSC pluripotency. (e-h) NCAM, MSX2, LEFTY1 and BMP4 genes expressed by cell lineages from the mesoderm. (i-j) PAX6 gene is expressed by cell lineages from the ectoderm and CDX2 gene is expressed by cell lineages from the trophectoderm. (k) GATA gene expressed by cell lineages from the endoderm. (l-o) Genes expressed by MSC (positive in CD29, CD73 and negative in the CD117, CD133). Gene expression was normalized to GAPDH. All experiments represent duplicates.
# (A, B) The heat map of mRNA expression level was assayed by qRT-PCR array. ESC/iPSC cells were cultured in KOSR condition medium with 10 μM SB431542. […] (C) Relative mRNA transcripts folds change of quantitative RT-PCR analysis in the indicated cell subsets. […]
# Pluripotent iPSC (MR90) were cultured in mTESR medium and KOSR medium with 10 μM SB431542 for 10 days. […] After 10 days, SB431542-treated cells and MR90-MSC P0 cells were analyzed for gene expression (see FIG. 13). […]
# [5] = system: MR90 cells; assay: Flow cytometry analysis of EPCAM expression in SB431542-treated MR90; format: cell-based, human
# Method: (a) the isotype Ab control. […] The EPCAM-(CD326-) cell population have been identified as the precursors of the mesodermal cell lineage. These cells can be further differentiated into mesenchymal stem cell lineage, like MSC. The iPSC MR90 cells were cultured in mTeSR and KOSR condition medium with SB431542 for 10 days, and then subcultured into MSC medium to differentiate cells into MSC. […] Analysis was performed by flow cytometry for EPCAM expression in the SB431542-treated MR90 cells after at 10 days in culture.
# [6] = system: BMP signaling utilizing ALK-1, -2, -3, and -6; settings: Inman et al. 2002; Laping et al. 2002; cited from earlier work
# [7] = system: SMAD2/3 phosphorylation; settings: Xu et al. 2008; cited from earlier work
# [8] = system: iPSC; assay: Immunofluorescence marker analysis of iPSC differentiated in the presence of SB431542; format: cell-based, human
# From the text: Nuclei were counter-stained with dapi (blue). […] Nuclei were counter-stained with dapi (blue).
# [9] = compared with undifferentiated cells in mTeSR medium
compound,measurement,setting,value
"NC(=O)c1ccc(-c2nc(-c3ccc4c(c3)OCO4)c(-c3ccccn3)[nH]2)cc1 [SB431542, 4-[4-(1,3-benzodioxol-5-yl)-5-(2-pyridinyl)-1H-imidazol-2-yl]-benzamide]","inhibition of ALK-4, -5 and -7",[1],selective and potent inhibitor
same,cell morphology,[2],differentiated into an epithelial-like monolayer
same,differentiation into germ layer lineages (lineage gene expression),[3],"enhanced MEL1 differentiation into mesoderm (MSX1, MSX2, SOX9, NCAM1, BMP4), ectoderm (PAX6), trophectoderm (CDX2), endoderm (GATA4) and MSC cells (CD73, CD29)"
same,"relative mRNA levels of pluripotent genes (Pou5F (Oct4), SOX2, MYST2)",[3]; [9],decreased
same,differentiation into germ layer lineages (lineage gene expression),[4],"induced MR90 differentiate into mesoderm (MSX1, MSX2, NCAM1, BMP4), ectoderm (PAX6) and trophectoderm (CDX2)"
same,"relative mRNA levels of pluripotent genes (Pou5F (Oct4), SOX2, MYST2)",[4]; [9],decreased
same,population of EPCAM+ MR90 cell,"[5]; KOSR medium with SB431542, 10 days, decreased from 22.84%",5.94%
same,population of EPCAM+ MR90 cell,"[5]; MTESR medium with SB431542, 10 days, decreased from 45%",8.14%
same,"effect on BMP signaling utilizing ALK-1, -2, -3, and -6",[6],without affecting
same,effect on SMAD2/3 phosphorylation and NANOG promoter activity in hESC,[7],inhibiting SMAD2/3 phosphorylation and subsequent decrease in NANOG promoter activity
same,"expression of pluripotency markers (Oct4, Nanog, Stella, SSEA3, Tra 1-60 and Tra 1-81)",[8],decreased expression
